The results in this text go back to patent US7244847B2, “Benzimidazole compounds” (Isis Pharmaceuticals, Inc., priority 2002, dated 2007).

Converted amounts (≈) assume the structure as drawn. Where two headings read alike, the source gives them in different places.

The subject of experiment [1] is S. aureus. Kind of experiment: MIC assay of Example 20, S. aureus. The class given is cell-based. As to conditions: Tables 4-7. How it is done: (§1) The assays are carried out in 150 μL volume in duplicate in 96-well clear flat-bottom bottom plates. The bacterial suspension from an overnight culture growth in appropriate medium is added to a solution of test compound in 4% DMSO in water. Final bacterial inoculum is approximately 10^5-10^6 CFU/well. The percent growth of the bacteria in test wells relative to that observed for a well containing no compound is determined by measuring absorbance at 595 nm (A595) after 24 h. The MIC is determined as a range of single compound where the complete inhibition of growth is observed at the higher concentration and cells are viable at the lower concentrations. Both ampicillin and tetracycline are used as antibiotic-positive controls in each screening assay for S. pyogenes, E. coli, S. aureus, E. faecalis, K. pneumoniae and P. vulgaris; . Ciprofloxacin is used as an antibiotic positive control in each screening assay for P. aeruginosa.

Experiment [2] deals with E. coli. Kind of experiment: MIC assay of Example 20, E. coli. As to conditions: Tables 4-7. The class given is cell-based. Here is the method:
as §1

For experiment [3], the system named is Bacterial Transcription/Translation. Kind of experiment: bacterial transcription/translation assay (pBestLuc luciferase, E. coli S30 extract). The class given is biochemical. Here is the method: This series of assays is known to those of skill in the art, and other assays may be substituted therefore without deviating from the spirit and scope hereof. The DNA template, pBestLuc™ (Promega), is a plasmid containing a reporter gene for firefly luciferase fused to a strong tac promoter and ribosome binding site. Messenger RNA from 1 μg pBestLuc is transcribed and translated in E. coli S30 bacterial extract in the presence or absence of test compound. Compounds are tested in a black 96 well microtiter plate with an assay volume of 35 μL. […] The transcription/translation reaction is incubated for 35 minutes at 37° C. followed by detection of functional luciferase with the addition of 30 μL LucLite™ (Packard). Light output is quantitated on a Packard TopCount.

The test system of experiment [4] is E. coli 16S A-site. Kind of experiment: MS-based assay of binding affinity for 16S RNA A-site. From the text:
It has been established that the 16S A-site is involved in bacterial translation, and the aminoglycosides are known to bind to the region. Thus, the bacterial 16S A-site represents a prime target for discovering antibacterial agents, and much work has focused on the modification of the natural aminoglycosides. […] These are shown below in Scheme 17. [drawing 31]
The synthesis of compound 1 and piperidine-modified benzimidazoles are shown above in Scheme 17.
A series of benzimidazole-modified analogs were prepared as shown above. The procedure required the simple heating of a suitable 1,2-dianiline (8) with isonipecotic acid (9) in the presence of polyphosphoric acid.

The test system of experiment [5] is E. coli 16S A-site. Description: MS-based competition experiments to determine the binding location. As to conditions: competition of 1 with glucosamine. From the text: MS-based competition experiments were used to determine the binding location of 1 to the target RNA. Glucosamine is the A-ring of paromomycin that is known to bind to the target RNA and inhibits bacterial translation.

The next experiment has as its system Ag IIa HCV IRES Target. Kind of experiment: MASS screening against Ag IIa HCV IRES target. The class given is binding. The settings on record: target conc. […], ligand conc. 50 μM; for Selectivity: by mass spectral analysis. Here is the method: A series of 2-aminobenzimidazole dimers were synthesized according to the procedure described in Example 11. A series of 5- and 6-substituted-2-aminobenzimidazoles also were synthesized, and all were evaluated for biological activity. Tables 4-7 report MIC and transcription/translation activity for the dimer compounds By the outlined procedure. Tables 8 and 9 report the MASS screening of 2-aminobenzimidazoles against the AgIIa HCV-IRES target. The reported selectivity was determined by mass spectral analysis of any associations and provides information about the relative binding affinities.

Experiment [6] concerns E. coli. Kind of experiment: in vitro antibacterial activity (MIC) against E. coli. The class given is cell-based. As to conditions: Escherichia coli; Tables 1 and 2.
Experimental: (§2) Compounds were evaluated for in vitro antibacterial activity (referred to MIC, the minimum concentration inhibiting fungal cell growth) against S. aureus and E. coli. […] The assays are carried out in 150 mL volume in duplicate in 96-well clear flat-bottom plates. […] Final bacterial or yeast inoculum is approximately 10^2-10^3 CFU/well. […] (bacteria) or 40-48 hours (yeast) at 25° C. The MIC is determined as a range of concentration where complete inhibition of growth is observed at the higher concentration and bacterial/yeast cells are viable at the lower concentration. Ampicillin and tetracycline are used as antibiotic positive controls for bacterial MIC assays.
(§3) The assays are carried out in 150 μL volume in duplicate in 96-well clear flat-bottom plates. […] Final bacterial or yeast inoculum is approximately 10^2-10^3 CFU/well. […] (bacteria) or 40-48 hours (yeast) at 25° C. The MIC is determined as a range of concentration where complete inhibition of growth is observed at the higher concentration and bacterial/yeast cells are viable at the lower concentration. Ampicillin and tetracycline are used as antibiotic positive controls for bacterial MIC assays.
Experiment [7] concerns S. aureus. Description: in vitro antibacterial activity (MIC) against S. aureus. The settings on record: Staphylococcus aureus; Tables 1 and 2. The class given is cell-based.
Experimental: as §2, §3
The mark [8] stands for this setting: Tables 4-7, read-out: Transcription/Translation, IC50.

As usually defined, the MIC is the lowest concentration that inhibits growth of the organism. Read a high MIC as weaker potency. As to `CN(CCCn1c(N)nc2cc(Br)ccc21)CCCn1c(N)nc2cc(Br)ccc21`, the MIC against S. aureus [1] (Staphylococcus aureus) and with E. coli [2] (Escherichia coli) was 25 to 50 µM (≈ 13.4 to 26.8 µg/mL) throughout. Moreover, in experiment [3] (setting [8]), the IC50 is > 100 µM.
Turning to `Clc1ccc2[nH]c(C3CCNCC3)nc2c1` [Compound 10d], the “binding affinity for 16S RNA A-site, in words” value (“binding affinity” below) in the experiment on E. coli 16S A-site [4] is “tolerated”.
With `CN(CCCn1c(N)nc2cc(Cl)c(Cl)cc21)CCCn1c(N)nc2cc(Cl)c(Cl)cc21` [drawing 35], the MIC in the experiment with S. aureus [1] (Staphylococcus aureus) and against E. coli [2] (Escherichia coli) was 12 to 25 µM (≈ 6.18 to 12.9 µg/mL) throughout. For the same molecule, the IC50 in experiment [3] (setting [8]) was > 100 µM.
For `Cc1ccc2[nH]c(C3CCNCC3)nc2c1` [Compound 10b], the “binding affinity” value with E. coli 16S A-site [4] is recorded as “tolerated”.
For `N[C@H]1C(O)O[C@H](CO)[C@@H](O)[C@@H]1O` (some centres unmarked) [glucosamine], the “binding site on the target RNA (competition), in words” value in the experiment on E. coli 16S A-site [5] is “compete for the same binding site”.
In the case of `CN(C)CCCOc1ccc2nc(N)n(CCCN(C)C)c2c1` [O(CH2)3N(CH3)2], in the experiment on Ag IIa HCV IRES Target, the “% Complex” value came to 862%, the “% Dimer” value amounted to 72% and the Selectivity was 96.88.
On to `CN(CCn1c(N)nc2cc(Cl)c(Cl)cc21)CCn1c(N)nc2cc(Cl)c(Cl)cc21` [X = Cl], for which the MIC in the experiment with S. aureus [1] and in the experiment on E. coli [2] was >100 µM throughout. The IC50 in experiment [3] (setting [8]) is > 100 µM.
As for `CN(C)CCCn1c(N)nc2ccccc21` [H], in the experiment on Ag IIa HCV IRES Target, the “% Complex” value was 125%, the “% Dimer” value is 35% and the Selectivity is 4.30.
Regarding `CN(C)CCCn1c(N)nc2cc(CN)ccc21` [CH2NH2], in the experiment on Ag IIa HCV IRES Target, the “% Complex” value was 109%, the “% Dimer” value amounted to 80% and the Selectivity is listed as 2.3.
As for `CN(CCn1c(N)nc2ccccc21)CCn1c(N)nc2ccccc21` [X = H], the MIC with S. aureus [1] and in the experiment with E. coli [2] was >100 µM throughout. The IC50 in experiment [3] (setting [8]) was > 100 µM.
Take `c1cnc2nc(C3CCNCC3)[nH]c2c1` [Compound 10j]: in the experiment with E. coli 16S A-site [4], the “binding affinity” value is “reduced activities”.
In the case of `CN(CCCn1c(N)nc2cc(C#N)ccc21)CCCn1c(N)nc2cc(C#N)ccc21`, the MIC against S. aureus [1] (Staphylococcus aureus) and in the experiment with E. coli [2] (Escherichia coli) was > 200 µM throughout. Further, in experiment [3] (setting [8]), the IC50 is > 200 µM.
Regarding `CN(CCCn1c(N)nc2cc(C(F)(F)F)ccc21)CCCn1c(N)nc2cc(C(F)(F)F)ccc21`, the MIC in the experiment on S. aureus [1] (Staphylococcus aureus) was 50 to 100 µM (≈ 25.7 to 51.3 µg/mL); in the experiment on E. coli [2] (Escherichia coli), 25 to 50 µM (≈ 12.8 to 25.7 µg/mL). In addition, the IC50 in experiment [3] (setting [8]) is > 100 µM.
Consider `Cc1ccc2nc(N)n(CCCN(C)C)c2c1` [CH3], for which, in the experiment with Ag IIa HCV IRES Target, the “% Complex” value is listed as 136%, the “% Dimer” value stood at 31% and the Selectivity was 6.55.
With `COc1ccc2nc(N)n(CCCN(C)C)c2c1` [OCH3], in the experiment on Ag IIa HCV IRES Target, the “% Complex” value turned out to be 286%, the “% Dimer” value came out at 39% and the Selectivity is listed as 10.67.
As to `Cc1ccc2nc(N)n(CCCN(C)CCCn3c(N)nc4ccc(C)cc43)c2c1`, the MIC against S. aureus [1] (Staphylococcus aureus) and against E. coli [2] (Escherichia coli) was > 100 µM in each case. Moreover, in experiment [3] (setting [8]), the IC50 lay within 6 to 12 µM.
In the case of `CN(CCCn1c(N)nc2ccccc21)CCCn1c(N)nc2ccccc21`, the results for the MIC against S. aureus [1] (Staphylococcus aureus) and in the experiment on E. coli [2] (Escherichia coli) were 75 to 100 µM (≈ 28.3 to 37.7 µg/mL) and 25 to 50 µM (≈ 9.44 to 18.9 µg/mL), respectively. Besides, in experiment [3] (setting [8]), the IC50 stood at 25 µM.
In the case of `CC(C)(C)OC(=O)N1CCC(c2nc3cc(Cl)c(Cl)cc3n2Cc2ccc(CBr)cc2)CC1` [Compound 4g], the minimal inhibitory concentration (MIC) was > 100 µM in the experiment on E. coli [6] and 52 µM (≈ 28.8 µg/mL) against S. aureus [7]. Further, in experiment [3] (Tables 1 and 2, bacterial transcription/translation, read-out: T/T IC50 MIC), the IC50 is > 100 µM.
With `CN(C)CCCn1c(N)nc2ccccc21` [drawing 42], the MIC in the experiment on S. aureus [1] (Staphylococcus aureus) and in the experiment on E. coli [2] (Escherichia coli) was > 50 µM each time. For the same molecule, the IC50 in experiment [3] (setting [8]) was > 100 µM.
With `CN(CCCn1c(N)nc2cc(Cl)c(Cl)cc21)CCCn1c(N)nc2cc(Cl)c(Cl)cc21` [X = N—Me], the “MIC, S. aureus” value against S. aureus [1] lay within 75 to 100 µM. For the same molecule, the “MIC, E. coli” value against E. coli [2] lay in the range of 25 to 50 µM. The IC50 in experiment [3] (setting [8]) was 25 µM.
Consider `COC(=O)c1ccc2c(c1)nc(N)n2CCCN(C)CCCn1c(N)nc2cc(C(=O)OC)ccc21`, for which the MIC in the experiment on S. aureus [1] (Staphylococcus aureus) and against E. coli [2] (Escherichia coli) was > 200 µM each time. For the same molecule, the IC50 in experiment [3] (setting [8]) is > 100 µM.
As for `CC(=O)N1CCC(c2nc3cc([N+](=O)[O-])ccc3[nH]2)CC1` [Compound 7a], the “binding affinity” value in the experiment with E. coli 16S A-site [4] is on record as “diminished the binding affinity”.
